Several values for one entry are separate records, joined by “and”; a condition that tells them apart may be missing. Equal values may be shown once. Toxic doses and inconclusive results are not listed.
Test system: BDF1 mice, P388 leukemia ip, median survival T/C
Experiment: NCI In Vivo Anticancer Drug Screen. Data for tumor model P388 Leukemia (intraperitoneal) in B6D2F1 (BDF1) mice
Details: endpoint: median survival time, higher = longer survival
Procedure, shortened: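 Steps: implant the tumour, treat one group with compound and another with vehicle, record survival, then divide treated by control.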

[1] = dose: 100.0 mg/kg/injection, schedule: Q01DX009 (ip), vehicle: saline with Tween-80
[2] = dose: 25.0 mg/kg/injection, schedule: Q01DX009 (ip), vehicle: Klucel (hydroxypropylcellulose) (HPC)
[3] = dose: 100.0 mg/kg/injection, schedule: Q01DX009 (ip), vehicle: Klucel (hydroxypropylcellulose) (HPC)
[4] = dose: 100.0 mg/kg/injection, schedule: Q04DX003 (ip), vehicle: Klucel (hydroxypropylcellulose) (HPC)
[5] = dose: 200.0 mg/kg/injection, schedule: Q01DX009 (ip), vehicle: saline with Tween-80
[6] = dose: 400.0 mg/kg/injection, schedule: Q01DX009 (ip), vehicle: saline with Tween-80
[7] = dose: 100.0 mg/kg/injection, schedule: Q04DX003 (ip), vehicle: saline with Tween-80
[8] = dose: 200.0 mg/kg/injection, schedule: Q04DX003 (ip), vehicle: saline with Tween-80
[9] = dose: 400.0 mg/kg/injection, schedule: Q04DX003 (ip), vehicle: saline with Tween-80
[10] = dose: 200.0 mg/kg/injection, schedule: Q01DX009 (ip), vehicle: Klucel (hydroxypropylcellulose) (HPC)
[11] = dose: 200.0 mg/kg/injection, schedule: Q04DX003 (ip), vehicle: Klucel (hydroxypropylcellulose) (HPC)
[12] = dose: 400.0 mg/kg/injection, schedule: Q01DX009 (ip), vehicle: Klucel (hydroxypropylcellulose) (HPC)
[13] = dose: 400.0 mg/kg/injection, schedule: Q04DX003 (ip), vehicle: Klucel (hydroxypropylcellulose) (HPC)
[14] = dose: 25.0 mg/kg/injection, schedule: Q04DX003 (ip), vehicle: Klucel (hydroxypropylcellulose) (HPC)
[15] = dose: 50.0 mg/kg/injection, schedule: Q04DX003 (ip), vehicle: Klucel (hydroxypropylcellulose) (HPC)

CC(=O)OC1C2CCC3C(C)(O)C4CC(O)C(C)(C)C4(O)C(O)CC13CC2(C)O (stereo not drawn)
T/C (dose: 12.5 micrograms/kg/injection, schedule: Q01DX009 (ip), vehicle: Klucel (hydroxypropylcellulose) (HPC)): 96 % of control
T/C (dose: 25.0 micrograms/kg/injection, schedule: Q01DX009 (ip), vehicle: Klucel (hydroxypropylcellulose) (HPC)): 91 % of control
T/C (dose: 50.0 micrograms/kg/injection, schedule: Q01DX009 (ip), vehicle: Klucel (hydroxypropylcellulose) (HPC)): 87 % of control

O=C(O)CCc1cccnc1
T/C [1]: 104 % of control

CC[P+]1(c2ccccc2)CCCc2ccc3ccccc3c21 (stereo not drawn)
T/C (dose: 1.56 mg/kg/injection, schedule: Q01DX009 (ip), vehicle: saline): 116 % of control
T/C (dose: 3.12 mg/kg/injection, schedule: Q01DX009 (ip), vehicle: saline): 120 % of control
T/C (dose: 30.0 mg/kg/injection, schedule: Q01DX009 (ip), vehicle: saline): 90 % of control

O=S(=O)(O)c1ccc(-c2ccccc2)cc1
T/C [2]: 95 % of control
T/C (dose: 50.0 mg/kg/injection, schedule: Q01DX009 (ip), vehicle: Klucel (hydroxypropylcellulose) (HPC)): 87 % of control
T/C [3]: 95 % of control
T/C [4]: 88 % of control

O=C(O)CNC(=O)c1ccc([N+](=O)[O-])cc1
T/C [1]: 90 % of control
T/C [5]: 90 % of control
T/C [6]: 86 % of control

Cc1cccc2c1CC(C(C)C)C2 (stereo not drawn)
T/C [1]: 123 % of control
T/C [5]: 103 % of control

c1ccc(Sc2cccc3ccccc23)cc1
T/C [1]: 100 % of control
T/C [5]: 104 % of control
T/C [6]: 104 % of control

CCNC(=O)Nc1ccc(N(CC)CC)cc1
T/C [7]: 100 % of control
T/C [8]: 100 % of control
T/C [9]: 100 % of control

O=C(/C=N/O)c1ccccc1
T/C (dose: 50.0 mg/kg/injection, schedule: Q04DX003 (ip), vehicle: gum acacia): 100 % of control
T/C (dose: 100.0 mg/kg/injection, schedule: Q04DX003 (ip), vehicle: gum acacia): 96 % of control
T/C (dose: 200.0 mg/kg/injection, schedule: Q04DX003 (ip), vehicle: gum acacia): 96 % of control

COc1cc2c(cc1OC)/C(=C1\OC(=O)c3c1ccc1c3OCO1)N(C)CC2
T/C [7]: 100 % of control
T/C [8]: 92 % of control
T/C [9]: 88 % of control

CCC(C)(CC(=O)O)CC(=O)O
T/C (dose: 3.12 mg/kg/injection, schedule: Q01DX009 (ip), vehicle: saline with Tween-80): 95 % of control
T/C (dose: 6.25 mg/kg/injection, schedule: Q01DX009 (ip), vehicle: saline with Tween-80): 112 % of control
T/C (dose: 12.5 mg/kg/injection, schedule: Q01DX009 (ip), vehicle: saline with Tween-80): 116 % of control
T/C (dose: 25.0 mg/kg/injection, schedule: Q01DX009 (ip), vehicle: saline with Tween-80): 87 % of control
T/C (dose: 50.0 mg/kg/injection, schedule: Q01DX009 (ip), vehicle: saline with Tween-80): 87 % of control
T/C (dose: 100.0 mg/kg/injection, schedule: Q04DX003 (ip), vehicle: saline): 110 % of control
T/C (dose: 200.0 mg/kg/injection, schedule: Q04DX003 (ip), vehicle: saline): 120 % of control
T/C (dose: 400.0 mg/kg/injection, schedule: Q04DX003 (ip), vehicle: saline): 120 % of control

COc1cc(/C=N\O)nc(-c2ccccn2)c1
T/C (dose: 12.5 mg/kg/injection, schedule: Q01DX009 (ip), vehicle: saline): 120 % of control
T/C (dose: 25.0 mg/kg/injection, schedule: Q01DX009 (ip), vehicle: saline): 96 % of control and 120 % of control
T/C (dose: 50.0 mg/kg/injection, schedule: Q01DX009 (ip), vehicle: saline): 111 % of control and 123 % of control
T/C (dose: 100.0 mg/kg/injection, schedule: Q01DX009 (ip), vehicle: saline): 114 % of control

c1ccc(C2=C(c3ccccc3)C23SCCS3)cc1
T/C [3]: 113 % of control
T/C [4]: 104 % of control
T/C [10]: 95 % of control
T/C [11]: 113 % of control
T/C [12]: 86 % of control
T/C [13]: 100 % of control

C=C1C/C(=C/C)C(=O)O[C@@H]2CCN3CC=C(COC(=O)[C@]1(C)O)[C@H]23
T/C (dose: 25.0 mg/kg/injection, schedule: Q01DX010 (ip), vehicle: carboxymethylcellulose (CMC)): 111 % of control
T/C (dose: 50.0 mg/kg/injection, schedule: Q01DX010 (ip), vehicle: carboxymethylcellulose (CMC)): 111 % of control
T/C (dose: 100.0 mg/kg/injection, schedule: Q01DX010 (ip), vehicle: carboxymethylcellulose (CMC)): 111 % of control

COc1ccc2[nH]c3c(C)c4ccncc4c(C)c3c2c1
T/C (dose: 4.68 mg/kg/injection, schedule: Q01DX009 (ip), vehicle: water): 117 % of control
T/C (dose: 9.37 mg/kg/injection, schedule: Q01DX009 (ip), vehicle: water): 88 % of control
T/C (dose: 9.37 mg/kg/injection, schedule: Q04DX003 (ip), vehicle: water): 176 % of control
T/C (dose: 18.5 mg/kg/injection, schedule: Q01DX009 (ip), vehicle: other): 87 % of control
T/C (dose: 18.5 mg/kg/injection, schedule: Q04DX003 (ip), vehicle: water): 188 % of control
T/C (dose: 18.75 mg/kg/injection, schedule: Q01DX001 (ip), vehicle: other): 112 % of control
T/C (dose: 18.75 mg/kg/injection, schedule: Q01DX001 (ip), vehicle: water): 176 % of control
T/C (dose: 18.75 mg/kg/injection, schedule: Q01DX009 (ip), vehicle: water): 94 % of control
T/C (dose: 37.5 mg/kg/injection, schedule: Q01DX001 (ip), vehicle: other): 116 % of control
T/C (dose: 37.5 mg/kg/injection, schedule: Q01DX001 (ip), vehicle: water): 164 % of control
T/C (dose: 37.5 mg/kg/injection, schedule: Q04DX003 (ip), vehicle: other): 158 % of control
T/C (dose: 75.0 mg/kg/injection, schedule: Q01DX001 (ip), vehicle: water): 200 % of control
T/C (dose: 75.0 mg/kg/injection, schedule: Q04DX003 (ip), vehicle: other): 95 % of control

Nc1c(Br)cc(Br)cc1Br
T/C (dose: 6.0 mg/kg/injection, schedule: Q01DX009 (ip), vehicle: Klucel (hydroxypropylcellulose) (HPC)): 110 % of control
T/C (dose: 12.0 mg/kg/injection, schedule: Q01DX009 (ip), vehicle: Klucel (hydroxypropylcellulose) (HPC)): 105 % of control
T/C [2]: 105 % of control
T/C [3]: 105 % of control
T/C [4]: 100 % of control
T/C [10]: 100 % of control
T/C [11]: 95 % of control
T/C [12]: 111 % of control
T/C [13]: 100 % of control

Nc1nc(N=Nc2ccc(O)cc2)cc(=O)[nH]1
T/C (dose: 50.0 mg/kg/injection, schedule: Q01DX009 (ip), vehicle: other): 106 % of control
T/C (dose: 100.0 mg/kg/injection, schedule: Q01DX009 (ip), vehicle: other): 110 % of control
T/C (dose: 200.0 mg/kg/injection, schedule: Q01DX009 (ip), vehicle: other): 103 % of control
T/C (dose: 400.0 mg/kg/injection, schedule: Q01DX009 (ip), vehicle: other): 112 % of control

CCCCCC(O)C1C(=O)OC(C)C(O)/C=C/C=C/C=C/C=C\C=C(\C)C(O)CC(O)CC(O)CC(O)CC(O)CC(O)CC1O (stereo not drawn)
T/C (dose: 2.5 mg/kg/injection, schedule: Q01DX009 (ip), vehicle: saline): 111 % of control
T/C (dose: 5.0 mg/kg/injection, schedule: Q01DX009 (ip), vehicle: Klucel (hydroxypropylcellulose) (HPC)): 95 % of control
T/C (dose: 10.0 mg/kg/injection, schedule: Q01DX009 (ip), vehicle: Klucel (hydroxypropylcellulose) (HPC)): 105 % of control
T/C (dose: 20.0 mg/kg/injection, schedule: Q01DX009 (ip), vehicle: Klucel (hydroxypropylcellulose) (HPC)): 90 % of control

CN(C)C(=S)SSC(=S)N(C)C
T/C [14]: 109 % of control
T/C [15]: 118 % of control
T/C (dose: 100.0 mg/kg/injection, schedule: Q01DX001 (ip), vehicle: Klucel (hydroxypropylcellulose) (HPC)): 100 % of control
T/C [4]: 113 % of control
T/C (dose: 200.0 mg/kg/injection, schedule: Q01DX001 (ip), vehicle: Klucel (hydroxypropylcellulose) (HPC)): 109 % of control
T/C (dose: 400.0 mg/kg/injection, schedule: Q01DX001 (ip), vehicle: Klucel (hydroxypropylcellulose) (HPC)): 113 % of control

C[N+]12CCCc3cc(CO)cc(c31)CCC2
T/C (dose: 12.5 mg/kg/injection, schedule: Q04DX003 (ip), vehicle: Klucel (hydroxypropylcellulose) (HPC)): 103 % of control
T/C [14]: 100 % of control
T/C [15]: 119 % of control

Source: PubChem BioAssay AID328 (DTP/NCI, 2004)
